Measured values published in ChEMBL document CHEMBL3259527, “Synthesis and molecular docking studies of potent α-glucosidase inhibitors based on biscoumarin skeleton” (Eur J Med Chem, 2014).

Target: not listed separately
Test: Inhibition of rat intestinal alpha-glucosidase using p-nitrophenyl-alpha-D-glucopyranoside assessed as release of p-nitrophenol after 5 mins by spectrophotometric analysis

Structure (SMILES)	IC50
COc1ccc(C(c2c(O)c3cc(Cl)ccc3oc2=O)c2c(O)c3cc(Cl)ccc3oc2=O)cc1	75.7 µM
CSc1ccc(C(c2c(O)c3cc(C)ccc3oc2=O)c2c(O)c3cc(C)ccc3oc2=O)cc1	37.4 µM
Cc1ccc2oc(=O)c(C(c3cccc([N+](=O)[O-])c3)c3c(O)c4cc(C)ccc4oc3=O)c(O)c2c1	68 µM
O=c1oc2ccc(Cl)cc2c(O)c1C(c1ccc(Cl)cc1Cl)c1c(O)c2cc(Cl)ccc2oc1=O	16.5 µM
COc1ccc(C(c2c(O)c3cc(Cl)ccc3oc2=O)c2c(O)c3cc(Cl)ccc3oc2=O)cc1OC	91.4 µM
CCOc1cc(C(c2c(O)c3cc(Cl)ccc3oc2=O)c2c(O)c3cc(Cl)ccc3oc2=O)ccc1O	57.1 µM
C[C@H]1O[C@H](O[C@H]2[C@H](O)[C@@H](O)[C@@H](O[C@H]3[C@H](O)[C@@H](O)C(O)O[C@@H]3CO)O[C@@H]2CO)[C@H](O)[C@@H](O)[C@@H]1N[C@H]1C=C(CO)[C@@H](O)[C@H](O)[C@H]1O (stereo partly specified) [ACARBOSE]	906 µM
Cc1ccc2oc(=O)c(C(c3ccccc3[N+](=O)[O-])c3c(O)c4cc(C)ccc4oc3=O)c(O)c2c1	129 µM
CCOc1cc(C(c2c(O)c3cc(C)ccc3oc2=O)c2c(O)c3cc(C)ccc3oc2=O)ccc1O	222 µM
O=c1oc2ccc(Cl)cc2c(O)c1C(c1ccccc1[N+](=O)[O-])c1c(O)c2cc(Cl)ccc2oc1=O	80.9 µM
Cc1ccc2oc(=O)c(C(c3cccc(O)c3)c3c(O)c4cc(C)ccc4oc3=O)c(O)c2c1	52.6 µM
COc1cc(C(c2c(O)c3cc(C)ccc3oc2=O)c2c(O)c3cc(C)ccc3oc2=O)cc(OC)c1OC	386 µM
O=c1oc2ccc(Cl)cc2c(O)c1C(c1cccc([N+](=O)[O-])c1)c1c(O)c2cc(Cl)ccc2oc1=O	27.1 µM
COc1ccc(C(c2c(O)c3cc(Cl)ccc3oc2=O)c2c(O)c3cc(Cl)ccc3oc2=O)cc1O	83.6 µM
COc1ccc(C(c2c(O)c3cc(C)ccc3oc2=O)c2c(O)c3cc(C)ccc3oc2=O)cc1	107 µM
COc1cc(C(c2c(O)c3cc(Cl)ccc3oc2=O)c2c(O)c3cc(Cl)ccc3oc2=O)ccc1O	113 µM
COc1cc(C(c2c(O)c3cc(Cl)ccc3oc2=O)c2c(O)c3cc(Cl)ccc3oc2=O)cc(OC)c1OC	128 µM
O=c1oc2ccc(Cl)cc2c(O)c1C(c1cccc(O)c1)c1c(O)c2cc(Cl)ccc2oc1=O	84.1 µM
Cc1ccc2oc(=O)c(C(c3ccc([N+](=O)[O-])cc3)c3c(O)c4cc(C)ccc4oc3=O)c(O)c2c1	79.2 µM

Species: Rattus norvegicus
Test: Ratio of acarbose IC50 to compound IC50 for rat intestinal alpha-glucosidase using p-nitrophenyl-alpha-D-glucopyranoside assessed as release of p-nitrophenol after 5 mins by spectrophotometric analysis

Structure (SMILES)	Ratio IC50
O=c1oc2ccc(Cl)cc2c(O)c1C(c1ccc(Cl)cc1Cl)c1c(O)c2cc(Cl)ccc2oc1=O	54
O=c1oc2ccc(Cl)cc2c(O)c1C(c1cccc([N+](=O)[O-])c1)c1c(O)c2cc(Cl)ccc2oc1=O	33
